The results in this text go back to patent publication EP0321967A2, “Compounds active on the cardiovascular system” (ZAMBON GROUP S.p.A., priority 1987, dated 1989).

One assay addresses T1, D₁ receptor (Rattus norvegicus, UniProt P18901).
T1 construct: from tissue; host or cells: isolated membranes of rat striated muscle (so in the source); probably striatum is meant
Put plainly: Dopaminergic activity: receptor binding on isolated membranes of rat striated muscle, D1. Conditions: read-out: IC₅₀. The protocol: (§1) The dopaminergic activity of compound A, for example, has been evaluated as percentage of receptor binding on isolated membranes of rat striated muscle; the IC₅₀ resulted to be 0.3 µM for D₂ receptor and 3 µM for D₁ receptor.

The next assay has as its system α₁. Put plainly: α1-antagonistic effect on phenylephrine-induced vasoconstriction of rabbit isolated aorta. It counts as cell-based. Conditions: antagonism of vasoconstriction induced by phenylephrine (α₁-agonist). An excerpt: The α₁-antagonistic effect has been evaluated as antagonistic effect (pA₂) on vasoconstriction induced by phenylephrine (α₁-agonist) on rabbit isolated aorta. For compound A the obtained pA₂ value was 7.7.

Assay [1] relates to spontaneously hypertensive rat. Put plainly: Systemic arterial pressure decrease after intravenous administration in spontaneously hypertensive rat. The note with it: in comparison with the basal value. Format: in vivo. The text has this: The compounds object of the present invention after administration by intravenous route in spontaneously hypertensive rat at the dose of 0.033-0.53 µm/kg induce a meaningful systemic arterial pressure decrease comprised between 20 and 90 mmHg.

A further assay has as its target T2, D₂ receptor (Rattus norvegicus, UniProt P61169).
T2 construct: from tissue; host or cells: isolated membranes of rat striated muscle (so in the source); probably striatum is meant
Put plainly: Dopaminergic activity: receptor binding on isolated membranes of rat striated muscle, D2. Conditions: read-out: IC₅₀. Here is the method:
as §1

Structures are written as SMILES.

T1 sequence (P18901 whole entry): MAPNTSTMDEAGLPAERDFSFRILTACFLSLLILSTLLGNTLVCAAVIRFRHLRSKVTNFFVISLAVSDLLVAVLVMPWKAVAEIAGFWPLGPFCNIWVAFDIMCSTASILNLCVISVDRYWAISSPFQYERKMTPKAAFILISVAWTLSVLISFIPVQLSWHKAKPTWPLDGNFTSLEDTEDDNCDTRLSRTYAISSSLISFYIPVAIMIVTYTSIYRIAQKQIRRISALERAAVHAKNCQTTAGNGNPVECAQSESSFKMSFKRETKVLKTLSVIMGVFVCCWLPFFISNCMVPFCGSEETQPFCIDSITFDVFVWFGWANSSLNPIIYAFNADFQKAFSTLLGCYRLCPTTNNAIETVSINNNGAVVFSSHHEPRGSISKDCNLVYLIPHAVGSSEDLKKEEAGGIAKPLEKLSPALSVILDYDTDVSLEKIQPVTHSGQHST
T2 sequence (P61169 whole entry): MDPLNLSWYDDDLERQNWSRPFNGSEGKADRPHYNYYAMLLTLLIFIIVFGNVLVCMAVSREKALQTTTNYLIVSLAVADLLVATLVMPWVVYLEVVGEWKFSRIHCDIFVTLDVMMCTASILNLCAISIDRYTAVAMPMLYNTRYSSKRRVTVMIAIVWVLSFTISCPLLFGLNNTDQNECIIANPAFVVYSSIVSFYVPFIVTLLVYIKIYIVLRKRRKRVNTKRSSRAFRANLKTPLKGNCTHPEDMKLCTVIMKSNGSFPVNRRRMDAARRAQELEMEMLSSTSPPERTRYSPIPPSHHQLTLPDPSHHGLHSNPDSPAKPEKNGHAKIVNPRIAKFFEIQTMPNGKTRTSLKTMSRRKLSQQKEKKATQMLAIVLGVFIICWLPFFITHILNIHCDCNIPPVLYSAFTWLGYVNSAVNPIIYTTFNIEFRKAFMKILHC

For the molecule `CCCN(CCOc1ccccc1OC)CCc1ccc(O)c(O)c1.Cl` [compound A, N-[2-(2-methoxyphenoxy)ethyl]-N-propyl-dopamine hydrochloride], the values for the IC50 at D₁ receptor and at D₂ receptor were 3 µM and 300 nM, respectively. The pA₂ with α₁ amounted to 7.7. Further, the results for the “reduction of systemic arterial pressure” value in assay [1] (dose 12.5 µg/kg) and in assay [1] (dose 200 µg/kg) were 51 mmHg and 89 mmHg, respectively.
